Laboratory results from ChEMBL document CHEMBL1201862, “PubChem BioAssay data set” (2004).
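Following 48 hours of exposure in 96-well plates, responses at five concentrations were used to interpolate endpoints linearly. GI50 marks 50% less growth.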 Active and inactive are the calls of the source. No stated cut-off is given here; in the data, active = GI50 up to about 1.1 µM and inactive = higher.

Columns and labels:
Assay in all cases: DTP human tumour cell line panel, 48 h
KM-20L2 = test system: KM-20L2
HOP-18 = test system: HOP-18
M19-MEL = test system: M19-MEL
SNB-78 = test system: SNB-78
DLD-1 = test system: DLD-1
LXFL 529 = test system: LXFL 529
RXF 631 = test system: RXF 631
MDA-N = test system: MDA-N
Hs-578T = test system: Hs-578T

Measured: GI50

O=NN(CCF)C(=O)NC1CCSCC1
inactive: KM-20L2 > 100 µM | HOP-18 > 100 µM | M19-MEL > 100 µM | SNB-78 > 100 µM | DLD-1 > 100 µM

CC1CC2=Nc3ccccc3NC(c3ccccc3)C2=C(O)O1 (stereo not drawn)
inactive: KM-20L2 > 100 µM | LXFL 529 > 100 µM | HOP-18 > 100 µM | M19-MEL > 100 µM | SNB-78 > 100 µM | DLD-1 > 100 µM

CCCCSCC(NC(=O)/C=C/c1c(C)[nH]c(=O)[nH]c1=O)C(=O)OC (stereo not drawn)
inactive: KM-20L2 61.7 µM | HOP-18 61.2 µM | M19-MEL 38.4 µM | SNB-78 47 µM | DLD-1 54.8 µM

CCN(CC)CC(C)(C)C(=O)/C=C/c1ccc(C)cc1
inactive: KM-20L2 4.17 µM | LXFL 529 7.31 µM | HOP-18 11.4 µM | RXF 631 9.42 µM | M19-MEL 9.46 µM | SNB-78 10.7 µM | DLD-1 11.5 µM

CSc1nc(NC(=O)O)c(N(C(C)=O)C(=O)O)c(=O)n1C
inactive: KM-20L2 > 100 µM | LXFL 529 > 100 µM | RXF 631 > 100 µM | M19-MEL > 100 µM | SNB-78 > 100 µM | DLD-1 > 100 µM

CN(CCO)c1nc(=O)c2c([nH]1)CCC2
inactive: KM-20L2 > 100 µM | LXFL 529 > 100 µM | HOP-18 > 100 µM | M19-MEL > 100 µM | SNB-78 > 100 µM | DLD-1 > 100 µM

Cc1cc(Cl)ccc1/N=C1/NC(=O)C(CC(=O)Nc2cccc(C)c2C)S1 (stereo not drawn)
inactive: KM-20L2 29.9 µM | RXF 631 26.4 µM | M19-MEL 35.1 µM | SNB-78 28.5 µM | DLD-1 33.4 µM

CCCCN(CCCC)C(=O)C(=O)C(C#N)c1ccc(C)cc1 (stereo not drawn)
inactive: KM-20L2 > 100 µM | LXFL 529 > 100 µM | HOP-18 > 100 µM | M19-MEL > 100 µM | SNB-78 > 100 µM | DLD-1 > 100 µM

CN1C(=O)NC2(O)c3ccccc3C(=O)C12O (stereo not drawn)
inactive: KM-20L2 > 100 µM | LXFL 529 > 100 µM | M19-MEL > 100 µM | SNB-78 > 100 µM | DLD-1 > 100 µM

COC1=CC(=O)c2ccccc2C1(CCC=C(C)C)C1=NC(C)(C)CO1 (stereo not drawn)
inactive: KM-20L2 > 100 µM | LXFL 529 50.7 µM | HOP-18 43.6 µM | M19-MEL 48.2 µM | DLD-1 > 100 µM

CCC1=CCN(c2cc(C)ccn2)OC1c1ccc(OC)cc1 (stereo not drawn)
inactive: KM-20L2 30.3 µM | LXFL 529 28.6 µM | RXF 631 61.2 µM | M19-MEL 31.5 µM | DLD-1 30.2 µM

COC(=O)/C(C#N)=C1\CCC(O)N1C (stereo not drawn)
inactive: KM-20L2 > 100 µM | LXFL 529 > 100 µM | HOP-18 > 100 µM | SNB-78 > 100 µM | DLD-1 > 100 µM

CC1C=CC(=O)C(n2cc(F)c(=O)[nH]c2=O)O1 (stereo not drawn)
inactive: KM-20L2 21.3 µM | HOP-18 10.8 µM | RXF 631 19.7 µM | M19-MEL 18.5 µM | SNB-78 28.2 µM | DLD-1 18.6 µM

C=CCNC1=NC(=O)C(CC(=O)Nc2cccc(Cl)c2)S1 (stereo not drawn)
inactive: KM-20L2 > 100 µM | LXFL 529 > 100 µM | HOP-18 > 100 µM | RXF 631 > 100 µM | M19-MEL > 100 µM | DLD-1 > 100 µM

CC1(C)CC23C4COC(=O)C2CCC1C3CC4=O (stereo not drawn)
inactive: KM-20L2 21.4 µM | HOP-18 1.72 µM | M19-MEL 11.9 µM | SNB-78 15 µM | DLD-1 11.2 µM

Cc1ccccc1NC(=O)C(=O)C1CN(c2ccccc2)N=C1N (stereo not drawn)
inactive: KM-20L2 > 100 µM | LXFL 529 > 100 µM | RXF 631 > 100 µM | M19-MEL > 100 µM | SNB-78 > 100 µM | DLD-1 > 100 µM

COc1cc(/C=C/C(=O)Oc2ccc(NC(C)=O)cc2)ccc1C(=O)OCc1ccccc1
inactive: MDA-N > 100 µM | KM-20L2 > 100 µM | Hs-578T > 100 µM | LXFL 529 > 100 µM | HOP-18 > 100 µM | M19-MEL > 100 µM | SNB-78 32.6 µM | DLD-1 > 100 µM

CC1Cc2c(N)nc(N3CCOCC3)nc2NC1=O (stereo not drawn)
inactive: KM-20L2 > 100 µM | HOP-18 > 100 µM | M19-MEL > 100 µM | DLD-1 > 100 µM

CCCCCCC/C=C1\CCC(CN(C)C)C1=O (stereo not drawn)
inactive: MDA-N 13.2 µM | KM-20L2 19.1 µM | Hs-578T 3.88 µM | LXFL 529 7.78 µM | HOP-18 17.2 µM | RXF 631 10.9 µM | SNB-78 16.4 µM | DLD-1 7.1 µM

COc1ccc(NC(=O)CC(=O)n2nc(C)c(/N=N/c3ccccc3C(=O)O)c2C)cc1
inactive: KM-20L2 > 100 µM | LXFL 529 > 100 µM | M19-MEL > 100 µM | SNB-78 29.3 µM | DLD-1 > 100 µM

CC(=O)O[C@H]1CC[C@@]2(C)C(=CC[C@@H]3C2CC[C@]2(C)C(=O)NC(=O)CC32)C1 (stereo partly drawn)
inactive: KM-20L2 > 100 µM | LXFL 529 > 100 µM | HOP-18 > 100 µM | RXF 631 > 100 µM | M19-MEL > 100 µM | SNB-78 > 100 µM | DLD-1 > 100 µM

C=C/C=C/NC(=O)OCc1ccccc1
inactive: KM-20L2 > 100 µM | LXFL 529 > 100 µM | HOP-18 > 100 µM | M19-MEL > 100 µM | SNB-78 > 100 µM | DLD-1 > 100 µM

CC(=O)NC1=C(NCC(C)(C)C)C(=O)c2ccccc2C1=O
inactive: KM-20L2 57.8 µM | LXFL 529 > 100 µM | M19-MEL 21.1 µM | SNB-78 86.1 µM | DLD-1 99.5 µM

CC(C)(C)C1=NO[C@H]2[C@@H](NC(=O)c3ccccc3)CC[C@@H]12
inactive: KM-20L2 > 100 µM | LXFL 529 > 100 µM | M19-MEL > 100 µM | SNB-78 > 100 µM | DLD-1 > 100 µM

CC(=O)OC(C)(C)C[N+](=O)[O-]
inactive: KM-20L2 > 100 µM | LXFL 529 > 100 µM | M19-MEL > 100 µM | DLD-1 > 100 µM

Cc1ccc(C2=C(c3ccccc3)C(Br)(c3ccc(C)cc3)C(c3ccccc3)=C2c2ccc(C)cc2)cc1
inactive: KM-20L2 > 100 µM | LXFL 529 > 100 µM | HOP-18 2.09 µM | RXF 631 > 100 µM | M19-MEL > 100 µM | SNB-78 > 100 µM | DLD-1 > 100 µM

COC(=O)C1=C2CCC(=O)[C@@]2(C)C(OC(C)=O)C=CC1 (stereo partly drawn)
inactive: KM-20L2 > 100 µM | LXFL 529 36.8 µM | RXF 631 20.5 µM | M19-MEL > 100 µM | SNB-78 57 µM | DLD-1 41.6 µM

CC(C(=O)C(C)O[Si](c1ccccc1)(c1ccccc1)C(C)(C)C)=P(c1ccccc1)(c1ccccc1)c1ccccc1 (stereo not drawn)
inactive: KM-20L2 4.13 µM | LXFL 529 3.3 µM | HOP-18 3.05 µM | M19-MEL 3.11 µM | SNB-78 3.48 µM | DLD-1 4.58 µM

Cn1cnc([N+](=O)[O-])c1Sc1nc2cc([N+](=O)[O-])ccc2[nH]1
inactive: KM-20L2 24.8 µM | LXFL 529 12.6 µM | HOP-18 45.8 µM | M19-MEL 17.4 µM | SNB-78 24.1 µM | DLD-1 11.5 µM

CC1CCCCc2nc3c(c(=O)n21)CCCC3 (stereo not drawn)
inactive: KM-20L2 > 100 µM | LXFL 529 > 100 µM | RXF 631 29.4 µM | M19-MEL > 100 µM | SNB-78 > 100 µM | DLD-1 > 100 µM

CCCCc1ccc(-n2c3nc(=O)n(C)c(=O)c-3nc3ccccc32)cc1
inactive: KM-20L2 4.4 µM | LXFL 529 15.6 µM | HOP-18 10.8 µM | RXF 631 11.9 µM | M19-MEL 1.5 µM | SNB-78 16.3 µM
